Assay results published in the supplement of paper PMC4862054.

Tests used:
Settings in all cases: incubation time: 72 h
MDA-MB-231 [1] = assay: drug sensitivity score (DSS), CellTiter-Blue viability (DSS (AUC-based score)); higher = stronger viability inhibition; extreme values may be limits of the assay
Procedure, shortened: (§1)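 Into 384-well plates carrying compound in a 5- or 9-concentration series went 20 µl of breast cancer cell suspension, followed by 72 h of incubation. Adding 2.5 µl CellTiter-Blue per well and incubating 2 h at 37 °C preceded fluorescence measurement at 560/590 nm. After normalisation of each plate to 0.1 % DMSO and a positive kill control, dose-response curves were fitted and the area beneath them taken as the drug sensitivity score.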

MDA-MB-468 [2] = assay: as above
Procedure, shortened: as §1

BT-474 [3] = assay: as above
Procedure, shortened: as §1

SK-BR-3 [4] = assay: as above
Procedure, shortened: as §1

HCC1143 = assay: normalised viability (% of control), CellTiter-Blue; higher = more viable cells (about 100 = DMSO control)
Procedure, shortened: (§2)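 The reported quantity is normalised viability at a single listed concentration of the series. Compound in 5 µl medium was pre-dispensed into 384-well plates and 20 µl of breast cancer cell suspension was added for 72 h. A 2 h, 37 °C CellTiter-Blue step (2.5 µl) preceded fluorescence reading at 560/590 nm, and plates were normalised to vehicle (100) and a positive kill control (0).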

HCC1937 = assay: as above
Procedure, shortened: as §2

MDA-MB-231 [5] = assay: as above
Procedure, shortened: as §2

CAL-85-1 = assay: as above
Procedure, shortened: as §2

MFM-223 = assay: as above
Procedure, shortened: as §2

DU-4475 = assay: as above
Procedure, shortened: as §2

HCC1599 = assay: as above
Procedure, shortened: as §2

BT-549 = assay: as above
Procedure, shortened: as §2

MDA-MB-436 = assay: as above
Procedure, shortened: as §2

HDQ-P1 = assay: as above
Procedure, shortened: as §2

CAL-51 = assay: as above
Procedure, shortened: as §2

MDA-MB-468 [6] = assay: as above
Procedure, shortened: as §2

BT-474 [7] = assay: as above
Procedure, shortened: as §2

CAL-148 = assay: as above
Procedure, shortened: as §2

SK-BR-3 [8] = assay: as above
Procedure, shortened: as §2

Hs578T = assay: as above
Procedure, shortened: as §2

CAL-120 = assay: as above
Procedure, shortened: as §2

MDA-MB-453 = assay: as above
Procedure, shortened: as §2

Cn1c(Nc2ccc(C(F)(F)F)cc2)nc2cc(Oc3ccnc(-c4ncc(C(F)(F)F)[nH]4)c3)ccc21 [RAF265]
Settings | drug sensitivity score
BT-474 [3] | 0
MDA-MB-231 [1] | 4.5
MDA-MB-468 [2] | 0.566
SK-BR-3 [4] | 0

normalised viability [%]
Settings | 0.3 nM | 1 nM | 3 nM | 10 nM | 100 nM | 1000 nM
BT-474 [7] | – | 118 | – | – | 107 | 96.4
BT-549 | – | 87.3 | – | – | 80.8 | 78.5
CAL-51 | 91.4 | – | 94.2 | 99.1 | – | –
CAL-85-1 | 87.4 | – | 83.3 | 89.8 | – | –
CAL-120 | – | 88.5 | – | – | 64.5 | 51.3
CAL-148 | 89.4 | – | 87.1 | 89.2 | – | –
DU-4475 | 102 | – | 95.6 | 116 | – | –
HCC1143 | – | 90.1 | – | – | 78 | 72.5
HCC1599 | – | 104 | – | – | 106 | 106
HCC1937 | – | 103 | – | – | 78.7 | 62
HDQ-P1 | 95.3 | – | 94.6 | 79.7 | – | –
Hs578T | – | 97.8 | – | – | 90.9 | 78.3
MDA-MB-231 [5] | – | 110 | – | – | 86.1 | 53.8
MDA-MB-436 | – | 120 | – | – | 79.6 | 83.6
MDA-MB-453 | 99.2 | – | 109 | 98.3 | – | –
MDA-MB-468 [6] | – | 110 | – | – | 94.2 | 80.1
MFM-223 | – | 94.9 | – | – | 74.7 | 43.8
SK-BR-3 [8] | – | 96.2 | – | – | 96.3 | 106

CC(C)Cn1cnc2c(N)nc3ccccc3c21 [Imiquimod]
Settings | drug sensitivity score
BT-474 [3] | 0
MDA-MB-231 [1] | 0
MDA-MB-468 [2] | 0
SK-BR-3 [4] | 0

normalised viability [%]
Settings | 3 nM | 10 nM | 30 nM | 100 nM | 1000 nM | 10000 nM
BT-474 [7] | – | 104 | – | – | 115 | 102
BT-549 | – | 94.5 | – | – | 103 | 78.7
CAL-51 | 103 | – | 97.9 | 98.1 | – | –
CAL-85-1 | 100 | – | 90.6 | 105 | – | –
CAL-120 | – | 97.9 | – | – | 97.2 | 105
CAL-148 | 93.1 | – | 102 | 98.5 | – | –
DU-4475 | 97 | – | 101 | 99 | – | –
HCC1143 | – | 96.5 | – | – | 99.9 | 94.1
HCC1599 | – | 102 | – | – | 100 | 109
HCC1937 | – | 86.2 | – | – | 82.5 | 88.5
HDQ-P1 | 91.7 | – | 92 | 96.6 | – | –
Hs578T | – | 105 | – | – | 105 | 84.9
MDA-MB-231 [5] | – | 84.8 | – | – | 89.3 | 107
MDA-MB-436 | – | 94.2 | – | – | 92.3 | 96.6
MDA-MB-453 | 94.6 | – | 105 | 107 | – | –
MDA-MB-468 [6] | – | 102 | – | – | 103 | 107
MFM-223 | – | 108 | – | – | 98.3 | 102
SK-BR-3 [8] | – | 85 | – | – | 91.2 | 115

N[C@@H](CSC(c1ccccc1)(c1ccccc1)c1ccccc1)C(=O)O [S-trityl-L-cysteine]
Settings | drug sensitivity score
BT-474 [3] | 4.93
MDA-MB-231 [1] | 14.7
MDA-MB-468 [2] | 12
SK-BR-3 [4] | 15.5

normalised viability [%]
Settings | 12 nM | 40 nM | 120 nM | 400 nM | 4000 nM | 40000 nM
BT-474 [7] | – | 111 | – | – | 94 | 25.9
BT-549 | – | 83.3 | – | – | 92.2 | 24
CAL-51 | 87 | – | 90.5 | 87 | – | –
CAL-85-1 | 105 | – | 106 | 101 | – | –
CAL-120 | – | 110 | – | – | 42.4 | 35.2
CAL-148 | 112 | – | 114 | 114 | – | –
DU-4475 | 117 | – | 92.9 | 102 | – | –
HCC1143 | – | 134 | – | – | 113 | 58.6
HCC1599 | – | 94.9 | – | – | 99.3 | 102
HCC1937 | – | 98.7 | – | – | 24.8 | 22.6
HDQ-P1 | 94.4 | – | 92.5 | 110 | – | –
Hs578T | – | 114 | – | – | 36.6 | 16.8
MDA-MB-231 [5] | – | 86.8 | – | – | 27.9 | 25.9
MDA-MB-436 | – | 90.2 | – | – | 78.6 | 58.2
MDA-MB-453 | 91.7 | – | 80.9 | 101 | – | –
MDA-MB-468 [6] | – | 102 | – | – | 34.5 | 34.6
MFM-223 | – | 102 | – | – | 100 | 78.2
SK-BR-3 [8] | – | 112 | – | – | 18.3 | 20.1

Cc1ccc(C(=O)N(CCCN)[C@@H](c2oc3cc(Cl)ccc3c(=O)c2Cc2ccccc2)C(C)C)cc1
Settings | drug sensitivity score
BT-474 [3] | 21.6
MDA-MB-231 [1] | 31.2
MDA-MB-468 [2] | 23.8
SK-BR-3 [4] | 31.6

normalised viability [%]
Settings | 0.3 nM | 1 nM | 3 nM | 10 nM | 100 nM | 1000 nM
BT-474 [7] | – | 117 | – | – | 27.5 | 28.7
BT-549 | – | 87.3 | – | – | 25.1 | 34.8
CAL-51 | 106 | – | 101 | 38.6 | – | –
CAL-85-1 | 92.9 | – | 90.1 | 33 | – | –
CAL-120 | – | 53 | – | – | 27.8 | 26.7
CAL-148 | 93 | – | 106 | 16.1 | – | –
DU-4475 | 91.4 | – | 108 | 52.9 | – | –
HCC1143 | – | 83.7 | – | – | 43.2 | 37.5
HCC1599 | – | 97.2 | – | – | 94.1 | 81.7
HCC1937 | – | 51.2 | – | – | 26.6 | 22.3
HDQ-P1 | 128 | – | 75.8 | 59.1 | – | –
Hs578T | – | 102 | – | – | 13.6 | 13.6
MDA-MB-231 [5] | – | 37.1 | – | – | 25.8 | 24.2
MDA-MB-436 | – | 97.8 | – | – | 60.6 | 59.2
MDA-MB-453 | 123 | – | 103 | 23.8 | – | –
MDA-MB-468 [6] | – | 88.4 | – | – | 26.5 | 36.3
MFM-223 | – | 105 | – | – | 43.4 | 40.6
SK-BR-3 [8] | – | 45 | – | – | 20.8 | 18.2
